Test results taken from PubChem BioAssay AID222 (DTP/NCI, 2004).
Several values for one entry are separate records, joined by “and”; a condition that tells them apart may be missing. Equal entries are not always repeated. Toxic doses and inconclusive results are not listed. The calls were made as follows: active = survival T/C of 150% or more; inactive = T/C below 125% in these data.

System: C57BL/6 mice, intracerebral ependymoblastoma, median survival T/C
Test: NCI In Vivo Anticancer Drug Screen. Data for tumor model Ependymoblastoma (intracerebral) in C57BL/6 mice
Conditions: endpoint: median survival time, higher = longer survival
Method: The antitumor activity of compounds was measured in mice bearing transplantable tumors. Survival or tumor size were measured and the results are expressed as the measurement made in the treated group (T) divided by the measurement made in the vehicle treated control group (C). The tumor model used in this assay is Ependymoblastoma (intracerebral) in C57BL/6 mice

[1] = dose: 1.0 mg/kg/injection, schedule: Q01DX005 (ip), vehicle: saline
[2] = dose: 32.0 mg/kg/injection, schedule: Q01DX005 (ip), vehicle: Klucel (hydroxypropylcellulose) (HPC)
[3] = dose: 128.0 mg/kg/injection, schedule: Q01DX005 (ip), vehicle: Klucel (hydroxypropylcellulose) (HPC)
[4] = dose: 256.0 mg/kg/injection, schedule: Q01DX005 (ip), vehicle: Klucel (hydroxypropylcellulose) (HPC)
[5] = dose: 512.0 mg/kg/injection, schedule: Q01DX005 (ip), vehicle: Klucel (hydroxypropylcellulose) (HPC)

Measured: T/C

O=C1c2ccccc2C(=O)c2c(NCCNCCO)ccc(NCCNCCO)c21
inactive: dose: 0.5 mg/kg/injection, schedule: Q01DX005 (ip), vehicle: Klucel (hydroxypropylcellulose) (HPC) 104 % of control and 110 % of control | dose: 0.5 mg/kg/injection, schedule: Q01DX005 (ip), vehicle: water 91 % of control and 103 % of control | dose: 1.0 mg/kg/injection, schedule: Q01DX005 (ip), vehicle: Klucel (hydroxypropylcellulose) (HPC) 102 % of control and 107 % of control | dose: 1.0 mg/kg/injection, schedule: Q01DX005 (ip), vehicle: saline with Tween-80 94 % of control | [1] 94 % of control | dose: 1.0 mg/kg/injection, schedule: Q01DX005 (ip), vehicle: water 105 % of control | dose: 1.0 mg/kg/injection, schedule: Q04DX003 (ip), vehicle: Klucel (hydroxypropylcellulose) (HPC) 113 % of control | dose: 1.0 mg/kg/injection, schedule: Q04DX003 (ip), vehicle: water 103 % of control | dose: 2.0 mg/kg/injection, schedule: Q01DX005 (ip), vehicle: Klucel (hydroxypropylcellulose) (HPC) 97 % of control and 108 % of control | dose: 2.0 mg/kg/injection, schedule: Q01DX005 (ip), vehicle: saline with Tween-80 100 % of control | dose: 2.0 mg/kg/injection, schedule: Q01DX005 (ip), vehicle: saline 108 % of control | dose: 2.0 mg/kg/injection, schedule: Q01DX005 (ip), vehicle: water 94 % of control and 102 % of control | dose: 2.0 mg/kg/injection, schedule: Q04DX003 (ip), vehicle: Klucel (hydroxypropylcellulose) (HPC) 103 % of control | dose: 2.0 mg/kg/injection, schedule: Q04DX003 (ip), vehicle: water 110 % of control | dose: 4.0 mg/kg/injection, schedule: Q01DX001 (ip), vehicle: Klucel (hydroxypropylcellulose) (HPC) 87 % of control | dose: 4.0 mg/kg/injection, schedule: Q01DX001 (ip), vehicle: water 107 % of control | dose: 4.0 mg/kg/injection, schedule: Q01DX005 (ip), vehicle: Klucel (hydroxypropylcellulose) (HPC) 98 % of control and 104 % of control | dose: 4.0 mg/kg/injection, schedule: Q01DX005 (ip), vehicle: other 105 % of control | dose: 4.0 mg/kg/injection, schedule: Q01DX005 (ip), vehicle: saline with Tween-80 104 % of control and 109 % of control | dose: 4.0 mg/kg/injection, schedule: Q01DX005 (ip), vehicle: saline 100 % of control | dose: 4.0 mg/kg/injection, schedule: Q01DX005 (ip), vehicle: water 98 % of control and 105 % of control | dose: 4.0 mg/kg/injection, schedule: Q04DX003 (ip), vehicle: Klucel (hydroxypropylcellulose) (HPC) 104 % of control | dose: 4.0 mg/kg/injection, schedule: Q04DX003 (ip), vehicle: water 96 % of control | dose: 8.0 mg/kg/injection, schedule: Q01DX001 (ip), vehicle: Klucel (hydroxypropylcellulose) (HPC) 95 % of control | dose: 8.0 mg/kg/injection, schedule: Q01DX001 (ip), vehicle: water 101 % of control | dose: 8.0 mg/kg/injection, schedule: Q01DX005 (ip), vehicle: Klucel (hydroxypropylcellulose) (HPC) 104 % of control and 107 % of control | dose: 8.0 mg/kg/injection, schedule: Q01DX005 (ip), vehicle: other 110 % of control | dose: 8.0 mg/kg/injection, schedule: Q01DX005 (ip), vehicle: saline with Tween-80 115 % of control | dose: 8.0 mg/kg/injection, schedule: Q01DX005 (ip), vehicle: water 106 % of control and 108 % of control | dose: 8.0 mg/kg/injection, schedule: Q04DX003 (ip), vehicle: Klucel (hydroxypropylcellulose) (HPC) 108 % of control | dose: 8.0 mg/kg/injection, schedule: Q04DX003 (ip), vehicle: water 119 % of control | dose: 16.0 mg/kg/injection, schedule: Q01DX001 (ip), vehicle: Klucel (hydroxypropylcellulose) (HPC) 98 % of control | dose: 16.0 mg/kg/injection, schedule: Q01DX001 (ip), vehicle: water 107 % of control | dose: 16.0 mg/kg/injection, schedule: Q01DX005 (ip), vehicle: Klucel (hydroxypropylcellulose) (HPC) 110 % of control and 112 % of control | dose: 16.0 mg/kg/injection, schedule: Q01DX005 (ip), vehicle: water 105 % of control | dose: 16.0 mg/kg/injection, schedule: Q04DX003 (ip), vehicle: Klucel (hydroxypropylcellulose) (HPC) 109 % of control | dose: 16.0 mg/kg/injection, schedule: Q04DX003 (ip), vehicle: water 114 % of control | dose: 32.0 mg/kg/injection, schedule: Q01DX001 (ip), vehicle: Klucel (hydroxypropylcellulose) (HPC) 112 % of control | dose: 32.0 mg/kg/injection, schedule: Q01DX001 (ip), vehicle: water 112 % of control | [2] 93 % of control and 117 % of control | dose: 32.0 mg/kg/injection, schedule: Q04DX003 (ip), vehicle: Klucel (hydroxypropylcellulose) (HPC) 103 % of control | dose: 32.0 mg/kg/injection, schedule: Q04DX003 (ip), vehicle: water 109 % of control | dose: 64.0 mg/kg/injection, schedule: Q01DX001 (ip), vehicle: Klucel (hydroxypropylcellulose) (HPC) 105 % of control | dose: 64.0 mg/kg/injection, schedule: Q01DX001 (ip), vehicle: water 115 % of control | dose: 64.0 mg/kg/injection, schedule: Q04DX003 (ip), vehicle: Klucel (hydroxypropylcellulose) (HPC) 99 % of control | dose: 128.0 mg/kg/injection, schedule: Q01DX001 (ip), vehicle: Klucel (hydroxypropylcellulose) (HPC) 98 % of control | dose: 256.0 mg/kg/injection, schedule: Q01DX001 (ip), vehicle: Klucel (hydroxypropylcellulose) (HPC) 104 % of control

Cc1ncc([N+](=O)[O-])n1CCO
inactive: dose: 64.0 mg/kg/injection, schedule: Q01DX005 (ip), vehicle: Klucel (hydroxypropylcellulose) (HPC) 103 % of control | [3] 99 % of control | [4] 107 % of control | [5] 111 % of control | dose: 1024.0 mg/kg/injection, schedule: Q01DX005 (ip), vehicle: Klucel (hydroxypropylcellulose) (HPC) 94 % of control

Cc1c[nH]c(=O)[nH]c1=O
inactive: [2] 99 % of control | dose: 64.0 mg/kg/injection, schedule: Q01DX005 (ip), vehicle: saline with Tween-80 97 % of control | [3] 97 % of control | dose: 128.0 mg/kg/injection, schedule: Q01DX005 (ip), vehicle: saline with Tween-80 102 % of control | [4] 95 % of control | dose: 256.0 mg/kg/injection, schedule: Q01DX005 (ip), vehicle: saline with Tween-80 97 % of control | [5] 106 % of control | dose: 512.0 mg/kg/injection, schedule: Q01DX005 (ip), vehicle: saline with Tween-80 88 % of control | dose: 1024.0 mg/kg/injection, schedule: Q01DX005 (ip), vehicle: saline with Tween-80 107 % of control

COc1ccc(CC2C(=O)NC(C)C(=O)N(C)C3C(=O)N(C)C(Cc4ccc(O)c(c4)Oc4ccc(cc4)C3O)C(=O)NC(C)C(=O)NC(C)C(=O)N2C)cc1 (stereo not given)
inactive: dose: 0.13 mg/kg/injection, schedule: Q01DX005 (ip), vehicle: saline 103 % of control | dose: 0.25 mg/kg/injection, schedule: Q01DX005 (ip), vehicle: saline 98 % of control | dose: 0.5 mg/kg/injection, schedule: Q01DX005 (ip), vehicle: saline 98 % of control | [1] 95 % of control

NC(C/[N+]([O-])=N/O)C(=O)O (stereo not given)
inactive: dose: 7.0 mg/kg/injection, schedule: Q01DX005 (ip), vehicle: saline 119 % of control | dose: 14.0 mg/kg/injection, schedule: Q01DX005 (ip), vehicle: saline 119 % of control | dose: 56.0 mg/kg/injection, schedule: Q01DX005 (ip), vehicle: saline 95 % of control

COc1ccc(C[C@H](N)C(=O)NC2C(CO)OC(n3cnc4c(N(C)C)ncnc43)C2O)cc1 (stereo not given in full)
inactive: dose: 20.0 mg/kg/injection, schedule: Q01DX005 (ip), vehicle: saline 104 % of control | dose: 40.0 mg/kg/injection, schedule: Q01DX005 (ip), vehicle: saline 101 % of control

CC(=O)[C@]1(O)Cc2c(O)c3c(c(O)c2[C@@H](OC2CC(N)C(O)C(C)O2)C1)C(=O)c1c(O)cccc1C3=O (stereo not given in full)
inactive: dose: 7.8 micrograms/kg/injection, schedule: Q01DX005 (ip), vehicle: suspension in saline 102 % of control | dose: 15.6 micrograms/kg/injection, schedule: Q01DX005 (ip), vehicle: suspension in saline 104 % of control | dose: 31.0 micrograms/kg/injection, schedule: Q01DX005 (ip), vehicle: suspension in saline 101 % of control | dose: 62.5 micrograms/kg/injection, schedule: Q01DX005 (ip), vehicle: suspension in saline 99 % of control | dose: 125.0 micrograms/kg/injection, schedule: Q01DX005 (ip), vehicle: suspension in saline 114 % of control
